This note sets out measurements from patent US12454531B2, “Substituted piperazine derivatives useful as T cell activators” (BRISTOL-MYERS SQUIBB COMPANY, priority 2019, dated 2025).

Read-outs that look alike come from different tables or passages of the source.

For one assay, the target named is DGKα (Homo sapiens (Human), UniProt P23743). The assay can be described thus: Assay 1: In Vitro DGK Inhibition Assays, Method A (DGKα LIPGLO, extruded liposome). The class given is biochemical. The note with it: extruded liposome substrate, 150 μM ATP. The protocol:
(§1) Assay 1: In Vitro DGK Inhibition Assays—Method A
(§2) The DGKα and DGKζ reactions were performed using either extruded liposome (DGKα and DGKζ LIPGLO assays) or detergent/lipid micelle substrate (DGKα and DGKζ assays). The reactions were carried out in 50 mM MOPS pH 7.5, 100 mM NaCl, 10 mM MgCl2, 1 μM CaCl2), and 1 mM DTT (assay buffer). The reactions using a detergent/lipid micelle substrate also contained 50 mM octyl B-D-glucopyranoside. The lipid substrate concentrations were 11 mM PS and 1 mM DAG for the detergent/lipid micelle reactions. The lipid substrate concentrations were 2 mM PS, 0.25 mM DAG, and 2.75 mM PC for the extruded liposome reactions. The reactions were carried out in 150 μM ATP. The enzyme concentrations for the DGKα and DGKζ were 5 nM
(§3) The compound inhibition studies were carried out as follows: 50 nL droplets of each test compound (top concentration 10 mM with 11 point, 3-fold dilution series for each compound) solubilized in DMSO were transferred to wells of a white 1536 well plate (Corning 3725). A 5 mL enzyme/substrate solution at 2× final reaction concentration was prepared by combining 2.5 mL 4× enzyme solution (20 nM DGKα or DGKζ (prepared as described below) in assay buffer) and 2.5 mL of either 4× liposome or 4× detergent/lipid micelle solution (compositions described below) and incubated at room temperature for 10 minutes. Next, 1 μL 2× enzyme/substrate solution was added to wells containing the test compound and reactions were initiated with the addition of 1 μL 300 uM ATP. The reactions were allowed to proceed for 1 hr, after which 2 μL Glo Reagent (Promega V9101) was added and incubated for 40 minutes. Next, 4 μL Kinase Detection Reagent was added and incubated for 30 minutes. Luminescence was recorded using an EnVision microplate reader. […] The compounds were evaluated at 11 concentrations to determine IC50.
(§4) The lipid composition was 5 mol % DAG (Avanti 8008110), 40 mol % PS (Avanti 840035P), and 55 mol % PC (Avanti 850457) at a total lipid concentration of 15.2 mg/mL for the 4× liposome solution. The PC, DAG, and PS were dissolved in chloroform, combined, and dried in vacuo to a thin film. The lipids were hydrated to 20 mM in 50 mM MOPS pH 7.5, 100 mM NaCl, 5 mM MgCl2, and were freeze-thawed five times. The lipid suspension was extruded through a 100 nm polycarbonate filter eleven times. […] The liposome preparation was stored at 4° C. for as long as four weeks.
(§5) Baculovirus amplification was achieved using infected Sf9 cells at 1:1500 virus/cell ratios, and grown for 65 hours at 27° C. post-transfection.
(§6) The cells were lysed using nitrogen cavitation method with a nitrogen bomb (Parr Instruments), and the lysates were clarified by centrifugation. […] The three steps column chromatography included nickel affinity resin capture (i.e. HisTrap FF crude, GE Healthcare), followed by size exclusion chromatography (i.e. HiLoad 26/600 Superdex 200 prep grade, GE Healthcare for DGK-alpha, and HiPrep 26/600 Sephacryl S 300_HR, GE Healthcare for DGK-zeta). The third step was ion exchange chromatography, and differed for the two isoforms. DGKα was polished using Q-Sepharose anion exchange chromatography (GE Healthcare). DGKζ was polished using SP Sepharose cation exchange chromatography (GE Healthcare). The proteins were delivered at concentrations of ≥2 mg/mL. The formulation buffers were identical for both proteins: 50 mM Hepes, pH 7.2, 500 mM NaCl, 10% v/v glycerol, 1 mM TCEP, and 0.5 mM EDTA.

Another assay has as its target DGKζ (Homo sapiens (Human), UniProt Q13574). The assay can be described thus: Assay 1 or 2: In Vitro DGK Inhibition Assays (DGKζ LIPGLO, extruded liposome). The class given is biochemical. The note with it: extruded liposome substrate, 150 μM ATP. How it is done: as §1, §2, §3, §4, §5, §6
Assay 2: In Vitro DGK Inhibition Assays—Method B
The DGKα and DGKζ reactions were performed using either extruded liposome (DGKα and DGKζ LIPGLO assays) or detergent/lipid micelle substrate (DGKα and DGKζ assays).

Another assay has as its system Human whole blood IFN-γ. The assay can be described thus: Assay 10: Human Whole Blood IFN-γ Assay. The class given is cell-based. The note with it: anti-CD3 and anti-CD28 stimulation, 100% = 3 μM reference compound, read-out: INFg Whole Blood Normalized Agonist EC50. The protocol: Assay 10: Human Whole Blood IFN-γ Assay
Human venous whole blood (22.5 μL per well), obtained from healthy donors, was pre-treated with compounds for one hour at 37° C. in a humidified 95% air/5% CO2 incubator. The blood was stimulated with 2.5 μL anti-human CD3 and anti-CD28 mAb at a final concentration of 1 μg/mL each for 24 hours at 37° C. IFN-7 in the supernatants was measured using AlphLISA kit (Cat #AL217).

Sequence of DGKα (P23743 whole entry): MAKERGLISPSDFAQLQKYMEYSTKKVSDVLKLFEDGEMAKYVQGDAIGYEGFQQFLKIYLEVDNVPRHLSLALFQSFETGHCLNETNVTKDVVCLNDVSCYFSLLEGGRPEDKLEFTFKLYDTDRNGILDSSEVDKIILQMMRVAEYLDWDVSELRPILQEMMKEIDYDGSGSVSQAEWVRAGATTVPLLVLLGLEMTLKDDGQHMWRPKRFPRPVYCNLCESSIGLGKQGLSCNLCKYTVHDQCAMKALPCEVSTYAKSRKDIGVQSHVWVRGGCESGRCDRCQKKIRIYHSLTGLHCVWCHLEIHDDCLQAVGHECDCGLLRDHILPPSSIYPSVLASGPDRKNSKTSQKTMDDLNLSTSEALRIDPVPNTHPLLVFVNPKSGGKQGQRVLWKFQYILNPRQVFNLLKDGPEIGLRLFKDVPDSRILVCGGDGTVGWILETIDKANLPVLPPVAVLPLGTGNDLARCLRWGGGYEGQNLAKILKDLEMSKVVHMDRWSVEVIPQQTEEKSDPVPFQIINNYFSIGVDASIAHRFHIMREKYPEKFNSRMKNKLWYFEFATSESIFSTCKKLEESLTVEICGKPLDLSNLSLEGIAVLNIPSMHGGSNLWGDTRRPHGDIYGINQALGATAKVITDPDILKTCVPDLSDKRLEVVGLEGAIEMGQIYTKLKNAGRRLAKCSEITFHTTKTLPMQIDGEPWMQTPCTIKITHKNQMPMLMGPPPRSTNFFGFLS
Sequence of DGKζ (Q13574 other isoform, or with tags, fused parts or gaps): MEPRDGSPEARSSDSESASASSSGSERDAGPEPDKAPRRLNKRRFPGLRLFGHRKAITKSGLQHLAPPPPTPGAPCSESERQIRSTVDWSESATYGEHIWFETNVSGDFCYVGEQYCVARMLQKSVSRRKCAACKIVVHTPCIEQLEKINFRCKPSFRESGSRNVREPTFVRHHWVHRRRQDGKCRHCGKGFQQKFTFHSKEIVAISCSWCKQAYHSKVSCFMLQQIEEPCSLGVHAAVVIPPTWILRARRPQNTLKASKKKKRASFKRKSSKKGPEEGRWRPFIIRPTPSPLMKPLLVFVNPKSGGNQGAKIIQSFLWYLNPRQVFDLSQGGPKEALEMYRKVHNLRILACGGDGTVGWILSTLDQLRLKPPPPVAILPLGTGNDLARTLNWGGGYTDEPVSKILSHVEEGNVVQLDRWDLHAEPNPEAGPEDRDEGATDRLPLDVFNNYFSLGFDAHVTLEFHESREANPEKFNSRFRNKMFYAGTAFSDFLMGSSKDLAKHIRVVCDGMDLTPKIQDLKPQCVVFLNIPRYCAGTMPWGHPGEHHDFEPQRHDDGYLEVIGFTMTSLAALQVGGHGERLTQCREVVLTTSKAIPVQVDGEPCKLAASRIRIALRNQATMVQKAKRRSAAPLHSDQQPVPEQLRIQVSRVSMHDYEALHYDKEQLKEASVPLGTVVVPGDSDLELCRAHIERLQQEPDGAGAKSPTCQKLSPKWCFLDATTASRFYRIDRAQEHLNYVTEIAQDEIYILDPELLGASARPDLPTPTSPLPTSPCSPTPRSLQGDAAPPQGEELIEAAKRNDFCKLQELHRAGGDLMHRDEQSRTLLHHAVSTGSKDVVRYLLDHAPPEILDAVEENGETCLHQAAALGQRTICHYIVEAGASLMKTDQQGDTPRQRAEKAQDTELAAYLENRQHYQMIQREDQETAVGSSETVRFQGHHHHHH

One may read the IC50 as the concentration that gives 50% inhibition. As for `C[C@@H]1CN(c2cc(=O)n(C)c3ccc(C#N)nc23)[C@@H](C)CN1C(CC(=O)NC(C)(C)C)c1ccc(F)cc1` (single isomer, unassigned) [Example 34], the IC50 against DGKα is 4.04 µM; against DGKζ it was 6.84 µM.
Regarding `C[C@@H]1CN(c2cc(=O)n(C)c3ccc(C#N)nc23)[C@@H](C)CN1C(C(=O)NCC(F)F)c1ccc(F)cc1` (stereo partly drawn) [Example 5, 2-((2R,5S)-4-(6-cyano-1-methyl-2-oxo-1,2-dihydro-1,5-naphthyridin-4-yl)-2,5-dimethylpiperazin-1-yl)-N-(2,2-difluoroethyl)-2-(4-fluorophenyl)acetamide], the results for the IC50 against DGKα and at DGKζ were 2.04 µM and 3.27 µM, respectively.
The matching figures for `C[C@@H]1CN(c2cc(=O)n(C)c3ccc(C#N)nc23)[C@@H](C)CN1C(C(=O)N1CCCCC1)c1ccc(F)cc1` (some centres unmarked) [Example 12]: 5.12 µM and 6.68 µM.
A word on the EC50: it is the concentration that produces a half-maximal response. On to `C[C@@H]1CN(c2cc(=O)n(C)c3ccc(C#N)nc23)[C@@H](C)CN1C(C(=O)N1CCOCC1)c1ccc(F)cc1` (stereo partly drawn) [Example 17, 8-((2S,5R)-4-(1-(4-fluorophenyl)-2-morpholino-2-oxoethyl)-2,5-dimethylpiperazin-1-yl)-5-methyl-6-oxo-5,6-dihydro-1,5-naphthyridine-2-carbonitrile], for which the half-inhibitory concentration (IC50) worked out at 2.56 µM against DGKα and 7.75 µM on DGKζ. In the assay on Human whole blood IFN-γ (24 hours), the EC50 was found to be 1.49 µM.
The matching figures for `C[C@@H]1CN(c2cc(=O)n(C)c3ccc(C#N)nc23)[C@@H](C)CN1C(C(=O)N1CCOCC1)c1ccc(F)cc1` (stereo partly drawn) [Example 18, 8-((2S,5R)-4-(1-(4-fluorophenyl)-2-morpholino-2-oxoethyl)-2,5-dimethylpiperazin-1-yl)-5-methyl-6-oxo-5,6-dihydro-1,5-naphthyridine-2-carbonitrile]: 24.8 µM, 42.9 µM and 20 µM.
As to `C[C@@H]1CN(c2cc(=O)n(C)c3ccc(C#N)nc23)[C@@H](C)CN1C(C(=O)N1CCN(C)CC1)c1ccc(F)cc1` (stereo partly drawn) [Example 19, 8-((2S,5R)-4-(1-(4-fluorophenyl)-2-(4-methylpiperazin-1-yl)-2-oxoethyl)-2,5-dimethylpiperazin-1-yl)-5-methyl-6-oxo-5,6-dihydro-1,5-naphthyridine-2-carbonitrile], the IC50 on DGKα was found to be 37.1 µM; on DGKζ, 172 µM. The EC50 in the assay on Human whole blood IFN-γ (Homo sapiens, 24 h) was 3.44 µM.
`C[C@@H]1CN(c2cc(=O)n(C)c3ccc(C#N)nc23)[C@@H](C)CN1C(C(=O)N1CCN(C)CC1)c1ccc(F)cc1` (stereo partly drawn) [Example 20, 8-((2S,5R)-4-(1-(4-fluorophenyl)-2-(4-methylpiperazin-1-yl)-2-oxoethyl)-2,5-dimethylpiperazin-1-yl)-5-methyl-6-oxo-5,6-dihydro-1,5-naphthyridine-2-carbonitrile]: the figures for the IC50 at DGKα and on DGKζ were 253 µM and 83.3 µM, respectively.
In the case of `C[C@@H]1CN(c2cc(=O)n(C)c3ccc(C#N)nc23)[C@@H](C)CN1C(C(=O)Nc1ccon1)c1ccc(F)cc1` (stereo partly drawn) [Example 29, 2-((2R,5S)-4-(6-cyano-1-methyl-2-oxo-1,2-dihydro-1,5-naphthyridin-4-yl)-2,5-dimethylpiperazin-1-yl)-2-(4-fluorophenyl)-N-(isoxazol-3-yl)acetamide], the values for the IC50 against DGKα and on DGKζ were 5.57 µM and 2.44 µM, respectively. In the assay on Human whole blood IFN-γ (Homo sapiens, 24 h), the half-maximal effective concentration (EC50) came out at 3.75 µM.
As to `C[C@@H]1CN(c2cc(=O)n(C)c3ccc(C#N)nc23)[C@@H](C)CN1C(C(=O)Nc1ccon1)c1ccc(F)cc1` (stereo partly drawn) [Example 30, 2-((2R,5S)-4-(6-cyano-1-methyl-2-oxo-1,2-dihydro-1,5-naphthyridin-4-yl)-2,5-dimethylpiperazin-1-yl)-2-(4-fluorophenyl)-N-(isoxazol-3-yl)acetamide], the IC50 on DGKα is 0.02 µM; against DGKζ it was 0.14 µM.
Turning to `CC(C)N(C)C(=O)CC(c1ccc(F)cc1)N1C[C@H](C)N(c2cc(=O)n(C)c3ccc(C#N)nc23)C[C@H]1C` (stereo partly drawn) [Example 42, 3-[(2R,5S)-4-(6-cyano-1-methyl-2-oxo-1,2-dihydro-1,5-naphthyridin-4-yl)-2,5-dimethylpiperazin-1-yl]-3-(4-fluorophenyl)-N-methyl-N-(propan-2-yl)propanamide], the concentration for half-maximal inhibition (IC50) came to 0.83 µM against DGKα and 4.12 µM against DGKζ. Besides, in the assay with Human whole blood IFN-γ (24 hours), the concentration giving a half-maximal response (EC50) amounted to 1.37 µM.
On to `C#CCCC1(CCCOC(=O)C(c2ccc(F)cc2)N2C[C@H](C)N(c3cc(=O)n(C)c4ccc(C#N)nc34)C[C@H]2C)N=N1` (stereo partly drawn) [Example 57, 3-(3-(but-3-yn-1-yl)-3H-diazirin-3-yl)propyl 2-((2R,5S)-4-(6-cyano-1-methyl-2-oxo-1,2-dihydro-1,5-naphthyridin-4-yl)-2,5-dimethylpiperazin-1-yl)-2-(4-fluorophenyl)acetate], for which the values for the half-maximal inhibitory concentration (IC50) against DGKα and against DGKζ were 0.07 µM and 0.19 µM, respectively. For the same compound, in the assay on Human whole blood IFN-γ (Homo sapiens, 24 h), the EC50 was 0.12 µM.
The matching figures for `C[C@@H]1CN(c2cc(=O)n(C)c3ccc(C#N)nc23)[C@@H](C)CN1C(C(=O)OCCC1(C)N=N1)c1ccc(F)cc1` (stereo partly drawn) [Example 62, 2-(3-methyl-3H-diazirin-3-yl)ethyl 2-((2R,5S)-4-(6-cyano-1-methyl-2-oxo-1,2-dihydro-1,5-naphthyridin-4-yl)-2,5-dimethylpiperazin-1-yl)-2-(4-fluorophenyl)acetate]: 0.08 µM, 0.19 µM and 0.57 µM.
For the compound `C[C@@H]1CN(c2cc(=O)n(C)c3ccc(C#N)nc23)[C@@H](C)CN1C(C(=O)NCCOCCOCCNC(=O)c1ccc2c(c1)C(=O)OC21c2ccc(O)cc2Oc2cc(O)ccc21)c1ccc(F)cc1` (stereo partly drawn) [Example 65, N-(2-(2-(2-(2-((2R,5S)-4-(6-cyano-1-methyl-2-oxo-1,2-dihydro-1,5-naphthyridin-4-yl)-2,5-dimethylpiperazin-1-yl)-2-(4-fluorophenyl)acetamido)ethoxy)ethoxy)ethyl)-3′,6′-dihydroxy-3-oxo-3H-spiro[isobenzofuran-1,9′-xanthene]-5-carboxamide], the IC50 on DGKα was 96.5 µM; against DGKζ, 56.6 µM.
In the case of `C[C@@H]1CN(c2cc(=O)n(C)c3ccc(C#N)nc23)[C@@H](C)CN1C(C(=O)OCCOCCOCCNC(=O)c1ccc2c(c1)C(=O)OC21c2ccc(O)cc2Oc2cc(O)ccc21)c1ccc(F)cc1` (stereo partly drawn) [Example 68, 2-(2-(2-(3′,6′-dihydroxy-3-oxo-3H-spiro[isobenzofuran-1,9′-xanthene]-5-carboxamido)ethoxy)ethoxy)ethyl 2-((2R,5S)-4-(6-cyano-1-methyl-2-oxo-1,2-dihydro-1,5-naphthyridin-4-yl)-2,5-dimethylpiperazin-1-yl)-2-(4-fluorophenyl)acetate], the IC50 against DGKα was 0.16 µM; against DGKζ it was 0.41 µM.
